The source of these data is the METLIN SMRT retention time set (Domingo-Almenara et al. 2019).

The nature of this data set: gradient 5% acetonitrile 3 min, to 50% in 2 min, to 85% in 15 min, held 3 min, 100 µL/min. Conditions: column: Zorbax Extend-C18 2.1 x 50 mm; eluents: water / acetonitrile, 0.1% formic acid. A digest of the protocol:
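Pure standards were analyzed in mixtures of ~100 molecules using HPLC coupled to a quadrupole time-of-flight mass spectrometer, in both positive and negative ionization mode. Separation used a Zorbax Extend-C18 column (2.1 × 50 mm, 1.8 μm) at 100 μL/min, with water and acetonitrile each containing 0.1% formic acid. Dead and dwell volumes were 40 μL and 900 μL, and data were collected over 3 months. Retention time was read from computationally picked adduct peaks, each inspected manually.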
`CCNC(=O)Nc1ccc(OCC(=O)NC(C)c2ccc(OC)c(OC)c2)nc1` (centres undefined) showed an RP-LC retention time of 644 s.

With `Cc1cc(NC(=O)c2sc(NCc3ccco3)nc2C)ccc1Cl`, the RP-LC retention time amounted to 956 s.

The compound `C=CCN(Cc1nc(-c2cccc(C)c2)no1)C(=O)Nc1ccc(C)cc1` registered an RP-LC retention time of 1110 s.

In turn, `CC(C)NC(=O)NCCC1CCN(S(=O)(=O)c2ccc(F)cc2)CC1` returned an RP-LC retention time of 782 s.

On to `COc1ccc(C2Cn3nnc(-c4nc(-c5ccccc5C)no4)c3CO2)cc1` (centres undefined), for which the RP-LC retention time was 1200 s.

On to `Cc1cc(N2CCC(NC(=O)Nc3ccc4c(c3)OCCO4)C2=O)ccc1F` (centres undefined), for which the RP-LC retention time was 774 s.

Regarding `COc1ccc(-n2ccc(=O)c(-c3nc(-c4ccc(F)cc4)no3)n2)cc1`, the RP-LC retention time is 851 s.

The compound `COc1cccc(-n2cc(C(=O)OCC(=O)OC(C)(C)C)c3ccccc3c2=O)c1` gave an RP-LC retention time of 1140 s.

For the compound `CC1CCN(S(=O)(=O)c2ccc(-c3nnc(C(=O)NCc4ccc(F)cc4)o3)cc2)CC1`, the RP-LC retention time is 1040 s.

With `Cc1nnc2sc(SCc3ccc(C(F)(F)F)cc3)nn2c1=O`, the RP-LC retention time amounted to 801 s.

For the compound `CCOc1ccc(C2c3[nH]c4ccccc4c3CCN2C(=O)COC)cc1` (centres undefined), the RP-LC retention time amounted to 981 s.

`Cc1cccc2c(C(N)=O)cc(=O)[nH]c12` came in with an RP-LC retention time of 596 s.

`COc1ccc(C(=O)N2CCc3cc(-c4csc(C)n4)ccc32)cc1` had an RP-LC retention time of 972 s.

Take `Cc1nn(C)c(C)c1CNC(=O)C1CCN(c2cnn(Cc3ccccc3)c(=O)c2)CC1`: the RP-LC retention time was 654 s.

The compound `O=C1C2N=NN(c3ccccc3)C2C(=O)N1c1ccccc1` (centres undefined) showed an RP-LC retention time of 907 s.

`O=C1CC(c2cccc(Cl)c2)Cc2c1cnn2-c1nc2ccccc2[nH]1` (centres undefined) had an RP-LC retention time of 1030 s.

In the case of `COCCN1CC2(CCN(S(=O)(=O)c3c(C)cc(C)cc3C)CC2)C1c1ccccc1` (centres undefined), the RP-LC retention time turned out to be 808 s.

The compound `NC1(C(=O)N[C@@H](CCO)c2ccc(Cl)cc2)CCN(c2ncnc3[nH]ccc23)CC1` showed an RP-LC retention time of 610 s.

Regarding `Cc1ccc(-c2csc(-n3nc(C)c(CC(=O)Nc4ccc(C)cc4C)c3C)n2)cc1`, the RP-LC retention time stood at 1260 s.

With `Cc1cccc(NC(=O)C2CCCN2S(=O)(=O)c2cccc3nsnc23)n1` (centres undefined), the RP-LC retention time was found to be 798 s.

For `Cc1ccc2c(Nc3cccc(C(C)C)c3)c(C(=O)N3CCSCC3)cnc2n1`, the RP-LC retention time amounted to 688 s.

Compound `Cc1ccc(NC(=O)C2CCCN2S(=O)(=O)c2cc3c(cc2Cl)NC(=O)CO3)cc1C` (centres undefined) showed an RP-LC retention time of 832 s.

Compound `O=C(CCC1CCCC1)N1CCN(C(=O)c2cc(-c3ccccn3)n[nH]2)CC1` gave an RP-LC retention time of 715 s.

Take `COc1ccc(Nc2nc(-c3ccc(OC)cc3)c(CCC(=O)O)s2)cc1`: the RP-LC retention time stood at 756 s.

Compound `CCn1nnc2cc(-c3noc(CN4C(=O)COc5ccccc54)n3)ccc21` displayed an RP-LC retention time of 845 s.

As for `CCOc1ccc(NC(=O)N2CCC(C(=O)NCc3csc(C)n3)CC2)cc1`, the RP-LC retention time was 652 s.

As to `Cn1nccc1-c1cccc(-c2noc(-c3ccc(CS(=O)(=O)c4ccccc4)cc3)n2)c1`, the RP-LC retention time was 1080 s.

Regarding `CN(C)C(CNC(=O)c1cc(-c2ccc3c(c2)OCCO3)on1)c1ccc(Cl)cc1` (centres undefined), the RP-LC retention time stood at 705 s.

`CCC(C)NC(=O)c1nc(CCS(=O)(=O)c2ccccc2)no1` (centres undefined) gave an RP-LC retention time of 771 s.

In the case of `CN(C)C(=O)c1n[nH]c2c1CN(C(=O)c1ccccc1C(F)(F)F)CC2`, the RP-LC retention time came to 725 s.

`Cc1ccc(OCC(=O)NC2(c3nc(-c4cccnc4)no3)CCCCC2)cc1` had an RP-LC retention time of 1010 s.

The compound `Cc1cc(C)cc(Nc2nc(C)cc(=O)n2CC(=O)Nc2cccc(C#N)c2)c1` came in with an RP-LC retention time of 811 s.

Turning to `O=C1C(=C2C=C(c3ccccc3)OC3=C2CCCC3)C(=O)c2ccccc21`, the RP-LC retention time came to 1150 s.

Consider `O=C(CS(=O)Cc1cnn(-c2ccccc2)c1-n1cccc1)NCc1cccc(Br)c1` (centres undefined), for which the RP-LC retention time turned out to be 830 s.

For the compound `Cc1oc(-c2ccc(NC(=O)C3CCCC3)cc2)nc1Cn1cccn1`, the RP-LC retention time is 859 s.

Turning to `COc1ccc(S(=O)(=O)CCC(=O)Nc2sc3c(c2C(N)=O)CCC(C)C3)cc1` (centres undefined), the RP-LC retention time came to 793 s.

`CCOc1coc(C(=O)NCCc2ccc(Cl)cc2)cc1=O` displayed an RP-LC retention time of 706 s.

For the compound `Cc1nc(-c2ccccc2)cc2nn(CC(=O)N3CCC(C)CC3)c(=O)n12`, the RP-LC retention time was 903 s.

For the compound `O=C(Cc1nnc(-c2ccccc2)o1)NC1CCCC1`, the RP-LC retention time came out at 675 s.

`COc1cccc(-c2nnc(Cc3nc(-c4cccs4)no3)o2)c1` registered an RP-LC retention time of 929 s.

`Cc1ccc(Cl)cc1NC(=O)c1cccn1Cc1noc(C2CC2)n1`: the RP-LC retention time worked out at 1000 s.

For the compound `Cc1ccc(-c2ccc3nn(Cc4nc(-c5cccc(C(F)(F)F)c5)no4)c(=O)n3n2)cc1`, the RP-LC retention time came out at 1090 s.

Consider `CCn1cc(-c2nc(C)c(C(=O)Nc3ccc(N4CCOCC4)cc3)s2)c2cccnc21`, for which the RP-LC retention time came to 863 s.

Regarding `CN(C)C(=O)c1ccc2c(c1)nc(CN1CCN(C(=O)COc3ccc(Cl)cc3)CC1)n2C`, the RP-LC retention time was 640 s.

`COc1ccc(-c2nnc(N3CCC(C(=O)NCc4cc(F)ccc4F)CC3)o2)cc1`: the RP-LC retention time turned out to be 824 s.

For `Cc1cc(C(=O)O)c2c(C)nn(-c3cccc(F)c3)c2n1`, the RP-LC retention time came out at 954 s.

`COc1ccc(-c2nnc(COc3ccc(NC(=O)C4CCCC4)cc3)o2)cc1` yielded an RP-LC retention time of 946 s.

In turn, `CCCN1C(=O)C2(NCCc3c2[nH]c2ccc(OC)cc32)c2cc(Br)ccc21` (centres undefined) came in with an RP-LC retention time of 729 s.

The compound `COc1ccc(F)cc1-c1cc(NC(=O)[C@@H]2CCCNC2)ncc1Cl` registered an RP-LC retention time of 737 s.

`CCc1nc(-c2csc(S(=O)(=O)N3CCCC(C(=O)NC4CCCCC4)C3)c2)no1` (centres undefined) came in with an RP-LC retention time of 1020 s.

Regarding `CCn1cc(-c2ccc(C)cc2)cc1C(=O)N1CCC(C)CC1`, the RP-LC retention time came to 1230 s.

Regarding `Cc1cc(C)c(NC(=O)Cn2c(=O)n(-c3ccc(F)cc3)c(=O)c3c2cc(C)n3C)c(C)c1`, the RP-LC retention time is 921 s.

Regarding `CCOc1ccc(-c2[nH]ncc2CN2CCC3(CC2)CC(C)(O)CCO3)cc1` (centres undefined), the RP-LC retention time stood at 596 s.

In turn, `COCC1CN(S(=O)(=O)Cc2cccc(F)c2)CC12CCNCC2` (centres undefined) showed an RP-LC retention time of 623 s.

`COc1cccc(NC(=O)N2CCC3(C2)C(=O)N(C)c2ccccc23)c1` (centres undefined) yielded an RP-LC retention time of 760 s.

For the compound `O=C(C1CCCO1)N1CCC(CCOc2ccccc2F)CC1` (centres undefined), the RP-LC retention time is 879 s.

Compound `CCOC(=O)c1c(C)c(CCC(=O)N2CCN(C(=O)c3ccco3)CC2)n(CC)c1C` displayed an RP-LC retention time of 778 s.

In turn, `CCN1CCN(CCCNC(=O)Cc2c(C(=O)O)c(C)cn2CC)CC1` had an RP-LC retention time of 563 s.

In the case of `COc1cccc2cc(C(=O)Nc3ccc4c(c3)C(=O)Nc3ccccc3O4)oc12`, the RP-LC retention time was found to be 950 s.
